The structures appear in SMILES notation.

Assay [1] concerns burn injury site on the back of a rat. The assay can be described thus: Rat burn injury healing test with nonwoven fabrics. In kind it is in vivo. To be noted: nonwoven fabric test. As to the method:
In this animal testing, the nonwoven fabric A or the nonwoven fabric B was applied to a burn injury site on the back of a rat, and the healing effects by the application of the nonwoven fabric A and B were evaluated. The details of the experiment will be described below.
The back of a rat was depilated. In the depilated portion, hot water at 80° C. was brought into contact for 5 seconds to form two burn injury sites. To the burn injury sites, the nonwoven fabric A (about 2 cm×2 cm) and the nonwoven fabric B (about 2 cm×2 cm) were applied, and occlusive patching was performed using non-permeable surgical tape (Blenderm, 3M) and adhesive flexible bandage (Silkytex 3, ALCARE Co., Ltd). On days 3, 6, and 9 after the application of the nonwoven fabrics A and B, the nonwoven fabrics were removed, and the healing effect was evaluated. […]
Two burn injury sites were each formed on 15 rats, and then the nonwoven fabric A and the nonwoven fabric B were applied to each two burn injury sites. […] On day 3, the nonwoven fabrics A and B on the rats of test group A were removed, and the skin conditions were assessed. On day 6, the nonwoven fabrics A and B on the rats of test group B were removed, and the skin conditions were assessed, and on day 9, the nonwoven fabrics A and B on the rats of test group C were removed, and the skin conditions were assessed. […]

The test system of assay [2] is burn injury sites on the backs of rats. The assay can be described thus: Rat burn injury healing test with films. To be noted: film test. The assay is classed as in vivo. Here is the method: The skin conditions of the rats were evaluated according to the following scores (visual inspection).
0: asymptomatic, 1: slight, 2: mild, 3: moderate, 4: crusting, 5: necrosed
The test results were expressed as average values±standard errors and analyzed using EXSUS (Version 8.0, CAC EXICARE Corporation) and SAS (Version 9.3, SAS Institute Japan Ltd). For the scores of the skin conditions, the Wilcoxon test was conducted at a 2-sided significance level of 5%.
In this animal testing, the films 1 to 3 were applied to burn injury sites on the backs of rats, and the healing effects by the application of the films 1 to 3 were evaluated. For comparison, a burn injury site was left untreated, and the development of the untreated site was observed. The details of the experiment will be described below.
The back of a rat was depilated. In the depilated portion, hot water at 80° C. was brought into contact for 5 seconds to form two burn injury sites. […] On days 3, 6, and 9 after the application of the films 1 and 2, the films were removed, and the healing effect was evaluated.
Furthermore, two burn injury sites were formed on the back of another rat in the same manner as described above. […] On days 3, 6, and 9 after the application of the film 3, the film was removed, and the healing effect was evaluated. […]

In the case of `CCCCCCCCCCCCCCCCCC(=O)OCC(O)CO` (centres unmarked) [glycerol alkyl ester, glycerol stearate], the “healing effect on skin having a burn injury (conclusion)” value in assay [1] and in assay [2] was “has an external wound-healing effect” in each case.
